Consider 1 molecule from patent publication US8445246B2, “Flavin-binding glucose dehydrogenases” (Kikkoman Corporation, priority 2009, dated 2013).

In one assay the test system is MjGDH. As to the kind of experiment: Inhibiting effect of 1,10-phenanthroline on MjGDH. It counts as biochemical, Mucor javanicus NISL0111. The text has this:
(§1) The inhibiting effect of […] on the activity of the flavin-binding GDH of the invention was examined in the following manner.

The test system of another assay is McGDH. As to the kind of experiment: Inhibiting effect of 1,10-phenanthroline on McGDH. In kind it is biochemical, Mucor circinelloides f. circinelloides NISL0117.
Source text: as §1

The next assay relates to MpGDH. Kind of assay: Inhibiting effect of 1,10-phenanthroline on MpGDH. In kind it is biochemical, Mucor prainii NISL0103.
Source text: as §1

Assay [1] has as its system flavin-binding GDH of the invention. Kind of assay: Inhibiting effect of 1,10-phenanthroline. It counts as biochemical.
Source text: as §1

For `c1cnc2c(c1)ccc1cccnc12` [1,10-phenanthroline], the “GDH inhibition rate (%)” value is recorded as 3.27% in the assay with MjGDH (1,10-phenanthroline 1 mM); 13.1% in the assay with MjGDH (1,10-phenanthroline 5 mM); 23.5% with MjGDH (1,10-phenanthroline 10 mM); 64.7% with MjGDH (1,10-phenanthroline 25 mM); 88.9% with MjGDH (1,10-phenanthroline 50 mM); 1.95% in the assay on McGDH (1,10-phenanthroline 1 mM). Moreover, the “GDH inhibition rate (%)” value amounted to 8.23% in the assay on McGDH (1,10-phenanthroline 5 mM); 12.8% in the assay on McGDH (1,10-phenanthroline 10 mM); 36.2% in the assay on McGDH (1,10-phenanthroline 25 mM); 68.5% with McGDH (1,10-phenanthroline 50 mM); 3.72% in the assay on MpGDH (1,10-phenanthroline 1 mM); 10.1% in the assay with MpGDH (1,10-phenanthroline 5 mM). In addition, the “GDH inhibition rate (%)” value is 23.9% in the assay with MpGDH (1,10-phenanthroline 10 mM), 44.1% in the assay with MpGDH (1,10-phenanthroline 25 mM) and 68.6% in the assay with MpGDH (1,10-phenanthroline 50 mM). Besides, the inhibiting effect in assay [1] (1 mM 1,10-phenanthroline) is reported as 2-4%. In addition, the inhibition rate entry in assay [1] (5 mM 1,10-phenanthroline) is reported as “about 10%”.
